Test results reported in the supplement of paper PMC10307832.

How the values were obtained:
Assay in all cases: relative viability (nuclei count vs DMSO), 5 days (fraction); higher = more cells survive
[1] = compound: C1=CC(=CC=C1C2=CC(=C(S2)NC(=O)N)C(=O)N)F [TPCA-1] + Cc1nc(Nc2ncc(C(=O)Nc3c(C)cccc3Cl)s2)cc(N2CCN(CCO)CC2)n1 [Dasatinib] (partner 0.075 µM)
Outline: (§1)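 Medians of duplicate plates are given as relative viability. That measure is the nuclei count in treated wells divided by the count in vehicle wells. Counts were taken on 4× images of lung cancer cell lines in 1536-well plates, 5 days after pin-tool dosing the day after seeding with one drug alone or a fixed anchor-drug dose plus five library-drug doses (not always all listed) in √10 steps.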

[2] = compound: C1/C(=C\C2=CC=CS2)/C(=O)/C(=C/C3=CC=CS3)/C1 + O=C(c1cc(Cc2n[nH]c(=O)c3ccccc23)ccc1F)N1CCN(C(=O)C2CC2)CC1 [Olaparib] (partner 8 µM)
Outline: as §1

[3] = compound: C1=CC(=CC=C1C2=CC(=C(S2)NC(=O)N)C(=O)N)F [TPCA-1] + CS(=O)(=O)N1CCN(Cc2cc3nc(-c4cccc5[nH]ncc45)nc(N4CCOCC4)c3s2)CC1 [Pictilisib] (partner 1 µM)
Outline: as §1

[4] = compound: C1=CC(=CC=C1C2=CC(=C(S2)NC(=O)N)C(=O)N)F [TPCA-1] + NC(=O)Nc1cc(-c2cccc(F)c2)sc1C(=O)N[C@H]1CCCNC1 [AZD7762] (partner 0.2 µM)
Outline: as §1

| Cell Line | relative viability ([1]; first compound 0.04 µM) | relative viability ([1]; first compound 0.1265 µM) | relative viability ([1]; first compound 0.4 µM) | relative viability ([1]; first compound 1.265 µM) | relative viability ([1]; first compound 4 µM) | relative viability ([2]; first compound 0.2 µM) | relative viability ([2]; first compound 0.6325 µM) | relative viability ([2]; first compound 2 µM) | relative viability ([2]; first compound 6.325 µM) | relative viability ([2]; first compound 20 µM) | relative viability ([3]; first compound 0.04 µM) | relative viability ([3]; first compound 0.1265 µM) | relative viability ([3]; first compound 0.4 µM) | relative viability ([3]; first compound 1.265 µM) | relative viability ([3]; first compound 4 µM) | relative viability ([4]; first compound 0.04 µM) | relative viability ([4]; first compound 0.1265 µM) | relative viability ([4]; first compound 0.4 µM) | relative viability ([4]; first compound 1.265 µM) | relative viability ([4]; first compound 4 µM) |
| --- | --- | --- | --- | --- | --- | --- | --- | --- | --- | --- | --- | --- | --- | --- | --- | --- | --- | --- | --- | --- |
| NCI-H1734 | 0.508 | 0.421 | 0.492 | 0.455 | 0.41 | 0.621 | 0.597 | 0.596 | 0.528 | 0.629 | 0.53 | 0.353 | 0.447 | 0.518 | 0.264 | 0.558 | 0.504 | 0.604 | 0.639 | 0.374 |
| NCI-H1755 | 0.499 | 0.424 | 0.396 | 0.31 | 0.285 | 0.88 | 0.907 | 0.916 | 0.749 | 0.877 | 0.406 | 0.344 | 0.426 | 0.209 | 0.204 | 0.444 | 0.634 | 0.402 | 0.337 | 0.378 |
| NCI-H1792 | 0.8 | 0.715 | 0.765 | 0.678 | 0.624 | 0.499 | 0.492 | 0.627 | 0.279 | 0.474 | 0.343 | 0.318 | 0.252 | 0.264 | 0.177 | 0.623 | 0.62 | 0.596 | 0.483 | 0.363 |
| NCI-H1793 | 0.422 |  | 0.342 | 0.365 | 0.211 | 0.904 | 0.931 | 0.978 | 0.782 | 0.893 | 0.292 | 0.381 | 0.454 | 0.245 | 0.28 | 0.53 | 0.649 | 0.751 | 0.392 | 0.144 |
| NCI-H1915 | 0.322 | 0.292 | 0.33 | 0.263 | 0.243 | 0.264 | 0.247 | 0.307 | 0.241 | 0.26 | 1.27 | 0.906 | 1.05 | 0.876 | 0.477 | 0.744 | 0.679 | 0.671 | 0.588 | 0.617 |
| NCI-H1944 | 0.251 | 0.207 | 0.217 | 0.198 | 0.151 | 0.435 | 0.385 | 0.392 |  | 0.41 | 0.384 | 0.326 | 0.343 | 0.312 | 0.258 | 0.474 | 0.484 | 0.565 | 0.455 | 0.474 |
| NCI-H1975 | 0.39 | 0.381 | 0.368 | 0.368 | 0.188 | 0.757 | 0.795 | 0.855 | 0.538 | 0.782 | 0.278 | 0.259 | 0.264 | 0.233 | 0.16 | 0.717 | 0.682 | 0.763 | 0.923 | 0.522 |
| NCI-H1993 | 0.564 | 0.54 | 0.617 | 0.522 | 0.537 | 1.1 | 0.969 | 1.17 | 0.958 | 0.85 | 0.883 |  | 0.939 | 0.911 | 0.723 | 0.972 | 0.748 | 0.745 | 0.747 | 0.598 |
| NCI-H2085 | 0.267 | 0.262 | 0.246 | 0.265 | 0.257 | 0.764 | 0.774 | 0.808 | 0.709 | 0.765 | 0.504 | 0.385 | 0.52 | 0.331 | 0.418 |  | 1.02 | 1.01 | 0.9 | 0.669 |
